Experimental data published in the NIST ThermoML archive (doi:10.1016/j.jct.2015.07.014).

Experiment: xn = mol fraction of the nth substance listed
Conditions: Fluid (supercritical or subcritical phases), Buoyancy - hydrostatic balance with magnetic suspension - one sinker

N#N [nitrogen] + O=C=O
mass density [kg/m3]
Conditions | x1 = 0.95 | x1 = 0.99
298.11 K, 30854 kPa | 318.784 | –
298.15 K, 30889 kPa | – | 306.308
298.18 K, 10974 kPa | 128.536 | –
298.18 K, 26965 kPa | – | 276.485
298.18 K, 28960 kPa | 304.08 | 291.991
298.19 K, 10975 kPa | – | 124.2
298.19 K, 12974 kPa | 151.108 | –
298.19 K, 12977 kPa | – | 145.801
298.19 K, 14973 kPa | 173.056 | –
298.19 K, 14975 kPa | – | 166.746
298.19 K, 16968 kPa | 194.247 | –
298.19 K, 16973 kPa | – | 186.99
298.19 K, 18971 kPa | 214.733 | 206.482
298.19 K, 20971 kPa | – | 225.196
298.19 K, 20972 kPa | 234.34 | –
298.19 K, 22968 kPa | 253.055 | –
298.19 K, 22969 kPa | – | 243.092
298.19 K, 24966 kPa | 270.906 | –
298.19 K, 24967 kPa | – | 260.186
298.19 K, 26964 kPa | 287.919 | –
323.18 K, 10979 kPa | 116.684 | –
323.18 K, 14973 kPa | 156.725 | –
323.18 K, 28962 kPa | – | 266.975
323.18 K, 30957 kPa | 291.768 | 280.954
323.19 K, 12977 kPa | 136.963 | –
323.19 K, 14974 kPa | – | 151.425
323.19 K, 20974 kPa | 212.443 | –
323.19 K, 22968 kPa | 229.628 | –
323.19 K, 24967 kPa | 246.174 | –
323.19 K, 24968 kPa | – | 237.145
323.19 K, 26966 kPa | – | 252.374
323.19 K, 28961 kPa | 277.225 | –
323.2 K, 12978 kPa | – | 132.477
323.2 K, 16971 kPa | 175.903 | –
323.2 K, 16973 kPa | – | 169.822
323.2 K, 18972 kPa | 194.494 | –
323.2 K, 18975 kPa | – | 187.629
323.2 K, 20974 kPa | – | 204.784
323.2 K, 22971 kPa | – | 221.285
323.2 K, 26964 kPa | 262.031 | –
323.21 K, 10980 kPa | – | 112.998
348.15 K, 14974 kPa | 143.613 | –
348.16 K, 12976 kPa | 125.56 | –
348.16 K, 26965 kPa | – | 232.594
348.16 K, 28963 kPa | – | 246.335
348.17 K, 10975 kPa | 107.02 | 103.828
348.18 K, 12974 kPa | – | 121.664
348.18 K, 20972 kPa | – | 188.207
348.18 K, 24966 kPa | – | 218.313
348.18 K, 30959 kPa | – | 259.551
348.19 K, 16972 kPa | 161.157 | –
348.19 K, 18968 kPa | – | 172.299
348.19 K, 30958 kPa | 268.893 | –
348.2 K, 14978 kPa | – | 139.081
348.2 K, 22973 kPa | – | 203.544
348.2 K, 26965 kPa | 240.883 | –
348.21 K, 16969 kPa | – | 155.902
348.21 K, 22970 kPa | 210.667 | –
348.21 K, 24968 kPa | 226.054 | –
348.22 K, 18976 kPa | 178.236 | –
348.23 K, 20969 kPa | 194.689 | –
348.24 K, 28961 kPa | 255.123 | –
373.11 K, 14975 kPa | 132.811 | –
373.14 K, 10975 kPa | 99.052 | –
373.14 K, 10978 kPa | – | 96.257
373.14 K, 24968 kPa | – | 202.615
373.14 K, 26966 kPa | – | 216.025
373.16 K, 20970 kPa | 180.142 | –
373.16 K, 28962 kPa | – | 228.969
373.17 K, 12975 kPa | 116.113 | –
373.17 K, 12978 kPa | – | 112.737
373.17 K, 30957 kPa | 249.734 | –
373.18 K, 14973 kPa | – | 128.781
373.18 K, 16969 kPa | 148.99 | –
373.19 K, 18968 kPa | 164.767 | –
373.19 K, 22970 kPa | 194.991 | –
373.19 K, 24968 kPa | 209.378 | –
373.19 K, 26966 kPa | 223.295 | –
373.19 K, 30958 kPa | – | 241.48
373.2 K, 16976 kPa | – | 144.455
373.2 K, 18972 kPa | – | 159.653
373.2 K, 22969 kPa | – | 188.731
373.2 K, 28961 kPa | 236.723 | –
373.21 K, 20974 kPa | – | 174.438
398.12 K, 10979 kPa | 92.339 | –
398.15 K, 16976 kPa | – | 134.736
398.17 K, 10981 kPa | – | 89.797
398.17 K, 26965 kPa | – | 201.89
398.17 K, 30957 kPa | – | 226.029
398.17 K, 30958 kPa | 233.41 | –
398.18 K, 28962 kPa | 221.089 | –
398.18 K, 28963 kPa | – | 214.146
398.19 K, 14974 kPa | – | 120.089
398.19 K, 20968 kPa | – | 162.734
398.2 K, 12973 kPa | 108.135 | –
398.2 K, 14975 kPa | 123.655 | –
398.2 K, 18973 kPa | – | 148.923
398.2 K, 22966 kPa | – | 176.162
398.2 K, 24970 kPa | – | 189.239
398.21 K, 18973 kPa | 153.504 | –
398.21 K, 22970 kPa | 181.754 | –
398.21 K, 24969 kPa | 195.274 | –
398.21 K, 26967 kPa | 208.381 | –
398.22 K, 12974 kPa | – | 105.084
398.22 K, 20969 kPa | 167.809 | –
398.23 K, 16974 kPa | 138.767 | –
423.11 K, 14972 kPa | – | 112.628
423.13 K, 24967 kPa | 183.194 | –
423.13 K, 26965 kPa | 195.591 | –
423.13 K, 28962 kPa | 207.636 | –
423.13 K, 30956 kPa | 219.326 | –
423.14 K, 22965 kPa | 170.413 | –
423.16 K, 16970 kPa | – | 126.322
423.16 K, 18970 kPa | 143.837 | –
423.16 K, 20971 kPa | 157.318 | –
423.17 K, 12979 kPa | – | 98.597
423.17 K, 18968 kPa | – | 139.677
423.18 K, 10978 kPa | 86.517 | –
423.18 K, 10979 kPa | – | 84.203
423.18 K, 12971 kPa | 101.311 | –
423.18 K, 14973 kPa | 115.841 | –
423.18 K, 16967 kPa | 129.977 | –
423.18 K, 20972 kPa | – | 152.731
423.18 K, 30957 kPa | – | 212.642
423.19 K, 22973 kPa | – | 165.419
423.21 K, 24968 kPa | – | 177.709
423.21 K, 28961 kPa | – | 201.322
423.22 K, 26966 kPa | – | 189.691
